Patent US6683184B2, “Piperazine derivatives and process for the preparation thereof” (Samjin Pharmaceutical Co., Ltd., priority 1999, dated 2004)
Values after ≈ are worked out from the molar mass of the structure shown.

Key:
Assay type in all cases: cell-based
XF 498 (human CNS) = assay: In vitro antitumor effect against human tumor cell lines, SRB assay, XF 498; details: 48 hours; for IC50: Homo sapiens, XF498, XF-498 cells, read-out: ED50 XF-498; for ED50 XF-498: XF-498 cells
Description: (§1) In vitro antitumor effect against human tumor cell lines.
(§2) a. Human solid tumor cell lines, A549(non-small lung cell), SKMEL-2(melanoma), HCT-15(colon), SKOV-3(ovarian), XF-498(CNS) were cultured at 37° C. in 5% CO2 incubators using RPMI 1640 media containing 10% FBS, while they were transfer-cultured successively once or twice per week. Cell cultures were dissolved in a solution of 0.25% trypsin and 3 mM CDTA PBS(−) and then cells were separated from media which the cells were sticked on.
(§3) b. 5×10^3˜2×10^4 cells were added into each well of 96-well plate and cultured in 5% CO2 incubator, at 37° C., for 24 hours.
(§4) c. Each sample drug was dissolved in a little DMSO and diluted with the used medium to a prescribed concentration for experiments, wherein the final concentration of DMSO was controlled below 0.5%.
(§5) d. Medium of each well cultured for 24 hours as above b. was removed by aspiration. Each 200 μl of drug samples prepared in c. was added into each well and the wells were cultured for 48 hours. Tz(time zero) plates were collected at the point of time drugs were added.
(§6) e. According to the SRB assay method, cell fixing with TCA, staining with 0.4% SRB solution, washing with 1% acetic acid and elution of dye with 10 mM Tris solution were carried out on Tz plates and culture-ended plates, whereby OD values were measured at 520 nm.
(§7) a. Time zero(Tz) value was determined with measuring the SRB protein amounts of the Tz plates collected at the point of time drugs were added.
(§8) b. Control value(C) was determined with the OD values of wells untreated with a drug.
(§9) c. Drug-treated test value(T) was determined with the OD values of drug-treated wells.
(§10) d. Effects of drugs were estimated with growth stimulation, net growth inhibition, net killing etc., being calculated from Tz, C and T.
(§11) e. If T≧Tz, cellular response function was calculated by 100×(T−Tz)/(C−Tz), and if T<Tz, by 100×(T−Tz)/Tz.

SKOV-3 (human ovarian) = assay: In vitro antitumor effect against human tumor cell lines, SRB assay, SKOV-3; details: SK-OV-3 cells, 48 hours; for IC50: Homo sapiens, read-out: ED50 SK-OV-3
Description: as §1, §2, §3, §4, §5, §6, §7, §8, §9, §10, §11

HCT-15 (human colon) = assay: In vitro antitumor effect against human tumor cell lines, SRB assay, HCT-15; details: HCT 15 cells, 48 hours; for IC50: Homo sapiens, read-out: ED50 HCT 15
Description: as §1, §2, §3, §4, §5, §6, §7, §8, §9, §10, §11

SKMEL-2 (human melanoma) = assay: In vitro antitumor effect against human tumor cell lines, SRB assay, SKMEL-2; details: SK-MEL-2 cells, 48 hours; for IC50: Homo sapiens, read-out: ED50 SK-MEL-2
Description: as §1, §2, §3, §4, §5, §6, §7, §8, §9, §10, §11

[1] = system: A549 (human non-small lung cell); assay: In vitro antitumor effect against human tumor cell lines, SRB assay, A549; details: A549 cells, 48 hours; for IC50: Homo sapiens, read-out: ED50 A 549
Description: as §1, §2, §3, §4, §5, §6, §7, §8, §9, §10, §11

Row | IC50 (XF 498 (human CNS)) [ng/mL] | IC50 (SKOV-3 (human ovarian)) [ng/mL] | IC50 (HCT-15 (human colon)) [ng/mL] | IC50 (SKMEL-2 (human melanoma)) [ng/mL] | IC50 [1] [ng/mL] | Compound | ED50 XF-498 (XF 498 (human CNS)) [ng/mL] | ED50 SK-OV-3 (SKOV-3 (human ovarian)) [ng/mL] | ED50 HCT 15 (HCT-15 (human colon)) [ng/mL] | ED50 SK-MEL-2 (SKMEL-2 (human melanoma)) [ng/mL] | ED50 A 549 [1] [ng/mL]
1 | 470 (≈ 1.13 µM) | 860 (≈ 2.07 µM) | 310 (≈ 0.746 µM) | 340 (≈ 0.818 µM) | 380 (≈ 0.915 µM) | COc1nc2ccccc2nc1NC(=S)N1CCN(c2cc(F)cc(F)c2)CC1 [Example 68, 1-[(2-Methoxyquinoxalin-3-yl)aminothiocarbonyl]-4-(3,5-difluorophenyl)piperazine] | – | – | – | – | –
2 | – | – | – | – | – | COc1cc(OC)cc(N2CCN(C(=Nc3cc(C(C)O)c(C)nc3OC)NO)CC2)c1 (stereo not drawn) [Example 139, N-Hydroxy-N′-[5-(1-hydroxyethyl)-2-methoxy-6-methylpyridin-3-yl]-[4-(3,5-dimethoxyphenyl)piperazin-1-yl]carboxyimidamide] | 0.3 (≈ 0.000673 µM) | 0.7 (≈ 0.00157 µM) | 0.4 (≈ 0.000898 µM) | 0.2 (≈ 0.000449 µM) | 0.7 (≈ 0.00157 µM)
3 | – | – | – | – | – | COc1cc(OC)cc(N2CCN(C(=Nc3cc(C)c(C)cc3OC)NO)CC2)c1 [Example 181, N-Hydroxy-N′-(4,5-dimethyl-2-methoxyphenyl-1-yl)-[4-(3,5-dimethoxyphenyl)piperazin-1-yl]carboxyimidamide] | 40 (≈ 0.0965 µM) | 60 (≈ 0.145 µM) | 20 (≈ 0.0483 µM) | 110 (≈ 0.265 µM) | 130 (≈ 0.314 µM)
4 | – | – | – | – | – | COC(=O)c1cc(N=C(NO)N2CCN(c3cc(F)cc(F)c3)CC2)c(OC)nc1C [Example 120, N-Hydroxy-N′-(5-methoxycarbonyl-2-methoxy-6-methylpyridin-3-yl)-[4-(3,5-difluorophenyl)piperazin-1-yl]carboxyimidamide] | 820 (≈ 1.88 µM) | 730 (≈ 1.68 µM) | 300 (≈ 0.689 µM) | 280 (≈ 0.643 µM) | 640 (≈ 1.47 µM)
5 | 410 (≈ 1.01 µM) | 490 (≈ 1.21 µM) | 330 (≈ 0.814 µM) | 220 (≈ 0.543 µM) | 340 (≈ 0.838 µM) | COc1nc2ccccc2nc1N(C)C(=O)N1CCN(c2cc(C)cc(C)c2)CC1 [Example 55, 1-[(2-Methoxyquinoxalin-3-yl)N-methylaminocarbonyl]-4-(3,5-dimethylphenyl)piperazine] | – | – | – | – | –
6 | – | – | – | – | – | COc1nc(C)c(CO)cc1N=C(NO)N1CCN(c2cc(F)cc(F)c2)CC1 [Example 127, N-Hydroxy-N′-(5-hydroxymethyl-2-methoxy-6-methylpyridin-3-yl)-[4-(3,5-difluorophenyl)piperazin-1-yl]carboxyimidamide] | 6 (≈ 0.0147 µM) | 11 (≈ 0.027 µM) | 2 (≈ 0.00491 µM) | 5 (≈ 0.0123 µM) | 13 (≈ 0.0319 µM)
7 | – | – | – | – | – | 1-[(5,6-Dichloroethyl-2-methoxypyrazin-3-yl)aminocarbonyl]-4-(3,5-dimethoxyphenyl)piperazine [Example 35] | 0.1 | 0.7 | 0.1 | <0.1 | 0.1
8 | 140 (≈ 0.358 µM) | 330 (≈ 0.843 µM) | 60 (≈ 0.153 µM) | 70 (≈ 0.179 µM) | 100 (≈ 0.255 µM) | CCc1ccccc1N1CCN(C(=O)Nc2nc3ccccc3nc2OC)CC1 [Example 39, 1-[(2-Methoxyquinoxalin-3-yl)aminocarbonyl]-4-(2-ethylphenyl)piperazine] | – | – | – | – | –
9 | – | – | – | – | – | COc1nc(C)c(C(C)O)cc1N=C(NO)N1CCN(c2cc(C)cc(C)c2)CC1 (stereo not drawn) [Example 138, N-Hydroxy-N′-[5-(1-hydroxyethyl)-2-methoxy-6-methylpyridin-3-yl]-[4-(3,5-dimethylphenyl)piperazin-1-yl]carboxyimidamide] | 18 (≈ 0.0435 µM) | 30 (≈ 0.0725 µM) | 6 (≈ 0.0145 µM) | 16 (≈ 0.0387 µM) | 74 (≈ 0.179 µM)
10 | – | – | – | – | – | COc1nc2ccccc2cc1N=C(NO)N1CCN(c2cc(C)cc(C)c2)CC1 [Example 173, N-Hydroxy-N′-(2-methoxyquinolin-3-yl)-[4-(3,5-dimethylphenyl)-piperazin-1-yl]carboxyimidamide] | 210 (≈ 0.518 µM) | 860 (≈ 2.12 µM) | 180 (≈ 0.444 µM) | 150 (≈ 0.37 µM) | 400 (≈ 0.986 µM)
11 | – | – | – | – | – | COc1nc2ccccc2nc1NC(=O)N1CCN(c2ccccc2SC)CC1 [Example 51, 1-[(2-Methoxyquinoxalin-3-yl)aminocarbonyl]-4-(2-methylt-hiophenyl)piperazine] | 630 (≈ 1.54 µM) | 680 (≈ 1.66 µM) | 180 (≈ 0.44 µM) | 280 (≈ 0.684 µM) | 370 (≈ 0.904 µM)
12 | 80 (≈ 0.19 µM) | 30 (≈ 0.0712 µM) | 8 (≈ 0.019 µM) | 660 (≈ 1.57 µM) | 10 (≈ 0.0237 µM) | COc1cc(OC)cc(N2CCN(C(=O)Nc3cc4ccccc4cc3OC)CC2)c1 [Example 87, 1-[(2-Methoxynaphth-3-yl)aminocarbonyl]-4-(3,5-dimethoxyphenyl)piperazine] | – | – | – | – | –
13 | – | – | – | – | – | COc1cc(C)c(C)cc1N=C(NO)N1CCN(c2ccccc2)CC1 [Example 177, N-Hydroxy-N′-(4,5-dimethyl-2-methoxyphenyl-1-yl)-(4-phenylpiperazin-1-yl)carboxyimidamide] | 0.4 (≈ 0.00113 µM) | 0.8 (≈ 0.00226 µM) | 0.1 (≈ 0.000282 µM) | 0.3 (≈ 0.000846 µM) | 0.6 (≈ 0.00169 µM)
14 | – | – | – | – | – | COc1cc(OC)cc(N2CCN(C(=Nc3cc(CO)c(C)nc3OC)NO)CC2)c1 [Example 125, N-Hydroxy-N′-(5-hydroxymethyl-2-methoxy-6-methylpyridin-3-yl)-[4-(3,5-dimethoxyphenyl)piperazin-1-yl]carboxyimidamide] | 0.1 (≈ 0.000232 µM) | 0.8 (≈ 0.00185 µM) | 0.1 (≈ 0.000232 µM) | 0.1 (≈ 0.000232 µM) | 0.9 (≈ 0.00209 µM)
15 | – | – | – | – | – | 1-[(5,6-Dichloroethyl-2-methoxypyrazin-3-yl)aminocarbonyl]-4-(3,5-dimethylphenyl)piperazine [Example 34] | 2.1 | 3.8 | 2.1 | 0.3 | 2.3
16 | – | – | – | – | – | COc1nc2ccccc2cc1N=C(NO)N1CCN(c2cccc(Cl)c2)CC1 [Example 176, N-Hydroxy-N′-(2-methoxyquinolin-3-yl)-[4-(3-chlorophenyl)-piperazin-1-yl]carboxyimidamide] | 0.1 (≈ 0.000243 µM) | 0.9 (≈ 0.00219 µM) | 0.1 (≈ 0.000243 µM) | 0.3 (≈ 0.000728 µM) | 1.2 (≈ 0.00291 µM)
17 | – | – | – | – | – | COc1cc(OC)cc(N2CCN(C(=Nc3cc4ccccc4nc3OC)NO)CC2)c1 [Example 172, N-Hydroxy-N′-(2-methoxyquinolin-3-yl)-[4-(3,5-dimethoxyphenyl)-piperazin-1-yl]carboxyimidamide] | 30 (≈ 0.0686 µM) | 80 (≈ 0.183 µM) | 20 (≈ 0.0457 µM) | 20 (≈ 0.0457 µM) | 70 (≈ 0.16 µM)
18 | 40 (≈ 0.093 µM) | 200 (≈ 0.465 µM) | 50 (≈ 0.116 µM) | 30 (≈ 0.0697 µM) | 40 (≈ 0.093 µM) | COc1cc2ccccc2cc1NC(=O)N1CCN(c2cc(Cl)cc(Cl)c2)CC1 [Example 89, 1-[(2-Methoxynaphth-3-yl)aminocarbonyl]-4-(3,5-dichlorophenyl)piperazine] | – | – | – | – | –
19 | 40 (≈ 0.103 µM) | 80 (≈ 0.205 µM) | 60 (≈ 0.154 µM) | 30 (≈ 0.077 µM) | 40 (≈ 0.103 µM) | COc1cc2ccccc2cc1NC(=O)N1CCN(c2cc(C)cc(C)c2)CC1 [Example 86, 1-[(2-Methoxynaphth-3-yl)aminocarbonyl]-4-(3,5-dimethylphenyl)piperazine] | – | – | – | – | –
20 | – | – | – | – | – | COc1cc(C)c(C)cc1N=C(NO)N1CCN(c2cc(F)cc(F)c2)CC1 [Example 182, N-Hydroxy-N′-(4,5-dimethyl-2-methoxyphenyl-1-yl)-[4-(3,5-difluorophenyl)piperazin-1-yl]carboxyimidamide] | 103 (≈ 0.264 µM) | 81 (≈ 0.207 µM) | 6 (≈ 0.0154 µM) | 33 (≈ 0.0845 µM) | 292 (≈ 0.748 µM)
21 | 680 (≈ 1.69 µM) | 350 (≈ 0.867 µM) | 200 (≈ 0.496 µM) | 900 (≈ 2.23 µM) | 380 (≈ 0.942 µM) | COc1cc2ccccc2cc1N(C)C(=O)N1CCN(c2cc(C)cc(C)c2)CC1 [Example 90, 1-[(2-Methoxynaphth-3-yl)-N-methylaminocarbonyl]-4-(3,5-dimethylphenyl)piperazine] | – | – | – | – | –
